From patent US20160030416A1, “METHODS OF TREATING B2-BRADYKININ RECEPTOR MEDIATED ANGIOEDEMA” (SHIRE HUMAN GENETIC THERAPIES, INC., priority 2013, published 2016)

Assays:
[1] = test system: BK-induced human umbilical vein contractions; assay: cells; details: Homo sapiens, 0.5 h; 30 minute incubation, BK-induced contractions; read-out: EC50, umbilical vein assay
Description: The inhibition effect of CFMQ on bradykinin induced […] was examined in an ex vivo functional assay of human umbilical vein contraction, which is considered a gold standard for bradykinin activity measurements. […] Firazyr®). Following a 30 minute incubation, BK-induced vein contractions were initiated in a cumulative manner (final concentration of 10 μM), followed by maximal calibration contraction induction by 10 μM serotonin. The tension increase for each dose response was calculated in relation to the (maximal) response towards serotonin, graphed as a dose-response curve and used to calculate an effective concentration at 50% (EC50) value (FIG. 6)

[2] = Pharmacokinetics, single oral gavage, 2 formulations, Wistar and Sprague-Dawley rats; assay type: in vivo; details: for AUC(0-inf) / AUC(0-t) / Cmax / Tmax / half-life: rat, plasma, po
Description: Pharmacokinetics and gender differences were evaluated with 2 different formulations of CFMQ (HGT3711) in 2 different types of rat models. These attributes were investigated in a single oral gavage study. Male and female Wistar rats (n=3 per dose group) received CFMQ (HGT3711) at 15, […], and or 150 mg/kg. […] The two vehicle formulations evaluated were formulation 1: 10% N-methyl pyrrolidone (NMP): 10% Ethanol: 30% polyethylene glycol (PEG400): 50% […] (lauroyl polyoxylglycerides); and formulation 2: 10% NMP: 0% PEG400: 20% CREMOPHOR EL (Macrogolglycerol ricinoleate): 25% […] 44/14 (lauroyl polyoxylglycerides): 25% CAPROYOL 90 (Propylene Glycol Caprylate).
Blood samples were taken via cardiac puncture prior to administration and at 0.25 (15 min), 0.50 (30 min), 1, 2, 4, 8 and 24 hours post dose. Plasma concentrations of CFMQ (HGT3711) were determined by LC-MS/MS and nominal dosing concentrations were used in all calculations.

[3] = In vitro microsomal stability, mouse; assay type: in vitro ADME; details: Mouse (CD-1), Male
Description: In vitro metabolic stability studies were performed to determine hepatic stability in vivo. CFMQ was incubated in liver microsomal preparations from mouse, rat, dog, mini-pig, and humans, as well as an additional study with monkey and human. CFMQ was incubated with human and animal liver microsomes at 0.3 mg/mL at 37° C. for 30 or 60 minutes. Additional reference compounds were incubated as controls. Following incubation, samples were analyzed by HPLC-MS/MS.

[4] = molecular target: T1, human B2-bradykinin receptor (Homo sapiens, UniProt P30411); assay: [3H]bradykinin competition binding assay in HEK 293 cells; parameters: expressed in transfected cells; details: 2 nM [3H]bradykinin, 90-minute incubation
T1 sequence (P30411 1-391): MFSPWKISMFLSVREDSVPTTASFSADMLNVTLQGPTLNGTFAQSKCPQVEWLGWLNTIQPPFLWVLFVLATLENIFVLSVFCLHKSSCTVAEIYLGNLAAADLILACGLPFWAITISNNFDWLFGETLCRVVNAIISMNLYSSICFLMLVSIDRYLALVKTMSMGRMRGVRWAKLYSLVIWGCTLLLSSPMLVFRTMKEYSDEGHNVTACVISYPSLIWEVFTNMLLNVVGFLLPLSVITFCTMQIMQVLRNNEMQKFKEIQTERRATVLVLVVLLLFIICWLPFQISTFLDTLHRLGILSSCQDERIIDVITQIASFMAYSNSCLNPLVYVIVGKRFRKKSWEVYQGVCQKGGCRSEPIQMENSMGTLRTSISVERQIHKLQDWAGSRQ
Description: For determination of non-specific binding 1.25 μL of a 10 mM bradykinin (BK) solution was added to 248.8 μL incubation buffer (containing 2 nM [^3H]BK). […] Appropriate controls were prepared in the same method.
Human embryonic kidney (HEK) 293 cells stably express recombinant human B2-bradykinin receptors (10 pmol/mg protein) and were added to 96-well culture-trays and cultivated for 1-3 days, followed by incubation with 100 μL of each of the incubation buffers containing [^3H]BK. After a 90-minute incubation period and washing (4×PBS (phosphate buffered saline)) supernatants of the cell mixtures were transferred to scintillation vials and assayed for [^3H]BK in a beta-counter. Results of counts per minute (cpm) for non-specific binding were subtracted from the total cpm and were used for curve fit and IC50 calculation.

[5] = female, Sprague-Dawley, 75 mg/kg, Formulation 1, S-D (Female)
[6] = female, Sprague-Dawley, 75 mg/kg, Formulation 2, S-D (Female)
[7] = female, Wistar, 15 mg/kg, Formulation 1, Wistar (Female)
[8] = female, Wistar, 15 mg/kg, Formulation 2, Wistar (Female)
[9] = female, Wistar, 75 mg/kg, Formulation 1, Wistar (Female)
[10] = female, Wistar, 75 mg/kg, Formulation 2, Wistar (Female)
[11] = female, Wistar, 150 mg/kg, Formulation 1, Wistar (Female)
[12] = female, Wistar, 150 mg/kg, Formulation 2, Wistar (Female)
[13] = male, Sprague-Dawley, 75 mg/kg, Formulation 1, S-D (Male)
[14] = male, Sprague-Dawley, 75 mg/kg, Formulation 2, S-D (Male)
[15] = male, Wistar, 15 mg/kg, Formulation 1, Wistar (Male)
[16] = male, Wistar, 15 mg/kg, Formulation 2, Wistar (Male)
[17] = male, Wistar, 75 mg/kg, Formulation 1, Wistar (Male)
[18] = male, Wistar, 75 mg/kg, Formulation 2, Wistar (Male)
[19] = male, Wistar, 150 mg/kg, Formulation 1, Wistar (Male)
[20] = male, Wistar, 150 mg/kg, Formulation 2, Wistar (Male)

Cc1cc(Cl)c(COc2cccc3c(-n4cc(F)cn4)cc(C)nc23)c(Cn2cccc(C#N)c2=O)n1 [CFMQ, 1-((4-Chloro-3-(((4-(4-fluoro-1H-pyrazol-1-yl)-2-methylquinolin-8-yl)oxy)methyl)-6-methylpyridin-2-yl)methyl)-2-oxo-1,2-dihydropyridine-3-carbonitrile]
EC50 [1]: 7.3 nM | oral exposure in female rats compared to male rats ([2]; average dose normalized AUC values, both S-D and Wistar): 20-40 times | AUC(0-inf) [2, 5]: 14300 ng·h/mL | AUC(0-t) [2, 5]: 11900 ng·h/mL | Cmax [2, 5]: 2280 ng/mL | Tmax [2, 5]: 0.5 h | half-life [2, 5]: 2.01 h | AUC(0-inf) [2, 6]: 20800 ng·h/mL | AUC(0-t) [2, 6]: 20600 ng·h/mL | Cmax [2, 6]: 2180 ng/mL | Tmax [2, 6]: 0.83 h | half-life [2, 6]: 3.58 h | AUC(0-inf) [2, 7]: 6650 ng·h/mL | AUC(0-t) [2, 7]: 4660 ng·h/mL | Cmax [2, 7]: 1140 ng/mL | Tmax [2, 7]: 0.83 h | half-life [2, 7]: 3.1 h | AUC(0-inf) [2, 8]: 5810 ng·h/mL | AUC(0-t) [2, 8]: 5210 ng·h/mL | Cmax [2, 8]: 592 ng/mL | Tmax [2, 8]: 3.33 h | half-life [2, 8]: 6.08 h | AUC(0-inf) [2, 9]: 11100 ng·h/mL | AUC(0-t) [2, 9]: 11100 ng·h/mL | Cmax [2, 9]: 2550 ng/mL | Tmax [2, 9]: 0.58 h | half-life [2, 9]: 3.13 h | AUC(0-inf) [2, 10]: 11300 ng·h/mL | AUC(0-t) [2, 10]: 10700 ng·h/mL | Cmax [2, 10]: 2200 ng/mL | Tmax [2, 10]: 0.75 h | half-life [2, 10]: 3.12 h | AUC(0-inf) [2, 11]: 9060 ng·h/mL | AUC(0-t) [2, 11]: 8710 ng·h/mL | Cmax [2, 11]: 1850 ng/mL | Tmax [2, 11]: 0.33 h | half-life [2, 11]: 5.42 h | AUC(0-inf) [2, 12]: 6440 ng·h/mL | AUC(0-t) [2, 12]: 6430 ng·h/mL | Cmax [2, 12]: 1580 ng/mL | Tmax [2, 12]: 0.33 h | half-life [2, 12]: 2.64 h | AUC(0-inf) [2, 13]: 435 ng·h/mL | AUC(0-t) [2, 13]: 410 ng·h/mL | Cmax [2, 13]: 187 ng/mL | Tmax [2, 13]: 0.5 h | half-life [2, 13]: 1.96 h | AUC(0-inf) [2, 14]: 745 ng·h/mL | AUC(0-t) [2, 14]: 673 ng·h/mL | Cmax [2, 14]: 191 ng/mL | Tmax [2, 14]: 0.67 h | half-life [2, 14]: 3.43 h | AUC(0-inf) [2, 15]: 229 ng·h/mL | AUC(0-t) [2, 15]: 218 ng·h/mL | Cmax [2, 15]: 77.4 ng/mL | Tmax [2, 15]: 0.5 h | half-life [2, 15]: 1.67 h | AUC(0-inf) [2, 16]: 155 ng·h/mL | AUC(0-t) [2, 16]: 175 ng·h/mL | Cmax [2, 16]: 34.7 ng/mL | Tmax [2, 16]: 0.83 h | half-life [2, 16]: 1.74 h | AUC(0-inf) [2, 17]: 282 ng·h/mL | AUC(0-t) [2, 17]: 243 ng·h/mL | Cmax [2, 17]: 155 ng/mL | Tmax [2, 17]: 0.25 h | half-life [2, 17]: 4.28 h | AUC(0-inf) [2, 18]: 261 ng·h/mL | AUC(0-t) [2, 18]: 219 ng·h/mL | Cmax [2, 18]: 94.9 ng/mL | Tmax [2, 18]: 0.5 h | half-life [2, 18]: 3.35 h | AUC(0-inf) [2, 19]: 397 ng·h/mL | AUC(0-t) [2, 19]: 309 ng·h/mL | Cmax [2, 19]: 277 ng/mL | Tmax [2, 19]: 0.25 h | half-life [2, 19]: 1.63 h | AUC(0-inf) [2, 20]: 260 ng·h/mL | AUC(0-t) [2, 20]: 199 ng·h/mL | Cmax [2, 20]: 119 ng/mL | Tmax [2, 20]: 0.25 h | half-life [2, 20]: 2.43 h | adverse reactions ([2]; single oral gavage 15-150 mg/kg, rats): No adverse reactions were observed | increase in exposure, females compared to males ([2]; within both formulations): > 5 fold | % Remaining [30 minutes] ([3]; 30 minutes): 7% | % Remaining [60 minutes] ([3]; 60 minutes): 3% | IC50 [4]: 3.3 nM
